Experimental findings from patent US7033829B2, “Method to inhibit cell growth using oligonucleotides” (Trustees of Boston University, priority 2000, dated 2006) are described below.

Oligonucleotides are written 5' to 3', each unit as a sugar letter and its base; * is a phosphorothioate linkage, no mark a phosphodiester; rarer units and linkages stand in square brackets, end groups in braces. Plain capitals give the bases only. d = 2'-deoxy (DNA); {P} = phosphate

One data set deals with T cell proliferation. As to the kind of experiment: Allogenic mixed lymphocyte reaction with keratinocyte culture medium. The format is cell-based, human. To be noted: >10 kD components of culture medium from 72 hour sample. On the procedure: (§1) The immunomodulatory effect of pTpT was tested in vitro using human keratinocytes. Duplicate cultures of primary human keratinocytes were treated with pTpT, diluent or UVB irradiation (200 J/m^2) or sham irradiation. Cells were collected at various times after treatment and analyzed for IL-10 protein by ELISA and for IL-10 mRNA by RT-PCR. An increase in IL-10 mRNA was detected after 6 hours in irradiated cells and after 48 hours in pTpT treated cells. An increase in IL-10 protein of 18 pg/ml was detected 24 hours after irradiation and 15±2 pg/ml 72 hours after treatment with pTpT. […] In the allogenic MLR, T cell activation is measured as lymphocyte proliferation, measured by ^3H-thymidine incorporation. IL-10 activity of culture medium from the 72 hour pTpT sample was measured by addition of the >10 kD components (containing the 18 kD IL-10 protein). […] Thus, like UVB irradiation, pTpT induces IL-10 in human keratinocytes which is likely to cooperate with TNFα to inhibit contact hypersensitivity in pTpT treated skin.

A further data set has as its system IL-10. Description: IL-10 mRNA (RT-PCR) and protein (ELISA) in keratinocytes. The format is cell-based, human. How it is done:
as §1
(In general: In an ELISA, binding on a coated surface is turned into a signal by an enzyme label.)

Data set [1] has as its system GADD 45, ERCC 3 and SDI 1 mRNA. Description: Northern blot of GADD 45, ERCC 3 and SDI 1 in SCC12F cells. To be noted: 100 μM; as early as 24 hours, several days. The format is cell-based, human. How it is done: Paired cultures of SCC12F cells were maintained in a Dulbecco's modified Eagle's Medium-based keratinocyte growth medium (DMEM; GIBCO/BRL, Gaithersburg, Md.) supplemented with 10% fetal calf serum (Hyclone Labs, Logan, Utah) and epidermal growth factor as described (Hollander, M. C. et al., J. Biol. Chem. 268:328–336 (1992)). Pre-confluent cultures were given fresh medium supplemented with either 100 μM T2, or an equal volume of diluent. Cells were collected daily after additions, and processed for total RNA isolation using the Tri-Reagent extraction method (Molecular Research Center, Cincinnati, Ohio) following the protocol of the manufacturer. Ten micrograms of RNA from each sample was gel electrophoresed, transferred to a nylon filter and probed as described previously (Nada, A. et al., Exp. Cell Res. 211:90–98 (1994)). The cDNA for GADD 45 was generated by PCR using primers based on the human GADD 45 gene sequence (Mitsudomi, T. et al., Oncogene 7:171–180 (1992)). The cDNA for ERCC 3 was purchased from the American Type Culture Collection (ATCC, Rockville, Md.). The SDI 1 cDNA was a gift of Dr. J. Smith and has been described previously (Walworth, N.C. and Bernards, R., Science 271:353–356 (1996)).

A further data set relates to human melanocytes. As to the kind of experiment: Melanogenesis in human melanocytes. The format is cell-based. The conditions noted are these: after one week in culture.
Another data set has as its system NBS fibroblasts. As to the kind of experiment: FACS analysis of NBS fibroblasts. The format is cell-based, human. The conditions noted are these: 40 μM. On the procedure:
Fibroblasts were obtained from an NBS (Nijmegen breakage syndrome) patient, in which p95/Nbs1 was below the level of detection. Preconfluent cultures or normal (control) fibroblasts and NBS fibroblasts were treated with 40 μM of the oligonucleotides and collected after 48 hours for FACS analysis (FIGS. 34A–34H). The averages and standard deviations were calculated from triplicate cultures of each condition. FACS profiles from one representative experiment of three are shown.
For orientation: A flow cytometer gives signals particle by particle.

Data set [2] has as its system p53-null osteosarcoma cell line (Saos-2). Description: FACS cell cycle analysis of Saos-2 cells. The conditions noted are these: 40 μM; 48 hours. The format is cell-based, human. An excerpt: In order to determine whether these oligonucleotides similarly affect other human cell types and to investigate the role of p53, we treated a squamous cell carcinoma line (SCC12F) (Rheinwald, J. G., et al., 1983, Human carcinogenesis. pp. 86–96. Academic Press (New York)) that over-expresses a presumptively mutated p53 (Eller, M. S. and B. A. Gilchrest. 2000, Pigment Cell Res. 13: 94–97) and a p53-null osteosarcoma cell line (Saos-2) (Wang, L. H., et al., 1998, Anticancer Res 18: 321–325) with either diluent alone, 11mer-1, 11mer-2 or 11mer-3. Cultures were analyzed by FACS after 48 hours (FIGS. 33A–33H). […] Although the percentage of cells in the S-phase in 11mer-1-treated SCC12F and Saos-2 cells was virtually identical (53±6% and 52±1%, respectively), the G0/G1 and G2/M content of the two cell types were somewhat different. This may reflect differential uptake of the oligonucleotide leading to dose-dependent differences, and/or different pathways acting in these cells to control the cell cycle. No apoptotic response to the oligonucleotides was detected in either cell type within 72 hours.

Consider thymidine dinucleotide [pTpT], for which, in the data set with T cell proliferation, the “reduction in T cell proliferation” value is recorded as 80±5%. Also, in the data set with IL-10 (72 hours after treatment), the “increase in IL-10 protein” value was determined as 15 ± 2 pg/mL. In addition, the “time after which an increase in IL-10 mRNA was detected” value in the data set on IL-10 (primary human keratinocytes) turned out to be 48 h. Besides, the “mRNAs for GADD 45, ERCC 3 and SDI 1” value in data set [1] was “up-regulated”.
“pGAGTATGAG (DNA, 5' {P}, backbone not given here) [SEQ ID NO: 1]”: the increase in melanogenesis with human melanocytes was 51–62%.
For the substance “pGTTAGGGTTAG (DNA {P}-dGdTdTdAdGdGdGdTdTdAdG) [SEQ ID NO: 5]”, the “proliferation compared to diluent-treated NBS cells” value in the data set on NBS fibroblasts is “minimally affected”. The “increase in the number of S-phase cells compared to diluent” value in the data set on NBS fibroblasts (48 hours, not statistically significant (p<0.08)) is given as 8%. In addition, the “cells in the S-phase” value in data set [2] came to 52±1%.
